Results published in ChEMBL document CHEMBL1201862, “PubChem BioAssay data set” (2004).
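Cultured in 96-well plates, cells were exposed to test compound for 48 hours across five concentrations. GI50 = concentration required for 50% inhibition of growth.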 The source made the active and inactive calls. No stated cut-off is given here; in the data, active = GI50 up to about 1.1 µM and inactive = higher.

What was measured:
Assay in all cases: NCI anticancer screen, dose series, 48 h
A498 = system: A498
NCI-H226 = system: NCI-H226
COLO 205 = system: COLO 205
SK-MEL-28 = system: SK-MEL-28
OVCAR-3 = system: OVCAR-3
LOX IMVI = system: LOX IMVI
SNB-78 = system: SNB-78
DLD-1 = system: DLD-1
RXF 393 = system: RXF 393
RPMI-8226 = system: RPMI-8226
SK-OV-3 = system: SK-OV-3
HCT-15 = system: HCT-15
SF-295 = system: SF-295
HL-60 = system: HL-60
HOP-18 = system: HOP-18
DMS-114 = system: DMS-114
SK-MEL-5 = system: SK-MEL-5
SN12C = system: SN12C
U-251 = system: U-251
SK-MEL-2 = system: SK-MEL-2
HOP-62 = system: HOP-62
NCI/ADR-RES = system: NCI/ADR-RES
IGROV-1 = system: IGROV-1
OVCAR-4 = system: OVCAR-4
CCRF-CEM = system: CCRF-CEM
NCI-H23 = system: NCI-H23
UACC-257 = system: UACC-257
MOLT-4 = system: MOLT-4
SW-620 = system: SW-620
SNB-75 = system: SNB-75
MCF7 = system: MCF7
XF498 = system: XF498
Malme-3M = system: Malme-3M
KM-20L2 = system: KM-20L2
CAKI-1 = system: CAKI-1
K562 = system: K562
UO-31 = system: UO-31
KM12 = system: KM12
UACC-62 = system: UACC-62
HCC 2998 = system: HCC 2998
A549 = system: A549
SF-268 = system: SF-268
NCI-H460 = system: NCI-H460
EKVX = system: EKVX
DMS-273 = system: DMS-273
NCI-H522 = system: NCI-H522
HT-29 = system: HT-29
SF-539 = system: SF-539
M19-MEL = system: M19-MEL
HCT-116 = system: HCT-116
OVCAR-8 = system: OVCAR-8
OVCAR-5 = system: OVCAR-5
SNB-19 = system: SNB-19
HOP-92 = system: HOP-92
SR = system: SR
786-0 = system: 786-0
TK-10 = system: TK-10
M14 = system: M14
LXFL 529 = system: LXFL 529
ACHN = system: ACHN

## CC(=O)NC(Cc1ccsc1)C(=O)O (stereo unspecified)
A498
  GI50: > 100 µM (inactive)
NCI-H226
  GI50: > 100 µM (inactive)
COLO 205
  GI50: > 100 µM (inactive)
SK-MEL-28
  GI50: > 100 µM (inactive)
OVCAR-3
  GI50: > 100 µM (inactive)
LOX IMVI
  GI50: > 100 µM (inactive)
SNB-78
  GI50: > 100 µM (inactive)
DLD-1
  GI50: > 100 µM (inactive)
RXF 393
  GI50: > 100 µM (inactive)
RPMI-8226
  GI50: > 100 µM (inactive)
SK-OV-3
  GI50: > 100 µM (inactive)
HCT-15
  GI50: > 100 µM
SF-295
  GI50: > 62.2 µM (inactive)
HL-60
  GI50: > 100 µM (inactive)
HOP-18
  GI50: > 100 µM (inactive)
DMS-114
  GI50: > 100 µM (inactive)
SK-MEL-5
  GI50: > 100 µM (inactive)
SN12C
  GI50: > 100 µM (inactive)
U-251
  GI50: > 100 µM (inactive)
SK-MEL-2
  GI50: > 100 µM (inactive)
HOP-62
  GI50: > 100 µM (inactive)
NCI/ADR-RES
  GI50: > 100 µM (inactive)
IGROV-1
  GI50: > 100 µM (inactive)
OVCAR-4
  GI50: > 100 µM (inactive)
CCRF-CEM
  GI50: > 100 µM (inactive)
NCI-H23
  GI50: > 100 µM (inactive)
UACC-257
  GI50: > 100 µM (inactive)
MOLT-4
  GI50: > 100 µM (inactive)
SW-620
  GI50: > 100 µM (inactive)
SNB-75
  GI50: > 100 µM (inactive)
MCF7
  GI50: > 100 µM (inactive)
XF498
  GI50: > 35.4 µM (inactive)
Malme-3M
  GI50: > 100 µM (inactive)
KM-20L2
  GI50: > 100 µM (inactive)
CAKI-1
  GI50: > 100 µM (inactive)
K562
  GI50: > 100 µM (inactive)
UO-31
  GI50: > 100 µM (inactive)
KM12
  GI50: > 100 µM (inactive)
UACC-62
  GI50: > 100 µM (inactive)
HCC 2998
  GI50: > 100 µM (inactive)
A549
  GI50: > 100 µM (inactive)
SF-268
  GI50: > 100 µM (inactive)
NCI-H460
  GI50: > 100 µM (inactive)
EKVX
  GI50: > 100 µM (inactive)
DMS-273
  GI50: > 100 µM (inactive)
NCI-H522
  GI50: > 100 µM (inactive)
HT-29
  GI50: > 100 µM (inactive)
SF-539
  GI50: > 100 µM (inactive)
M19-MEL
  GI50: > 100 µM (inactive)
HCT-116
  GI50: > 100 µM (inactive)
OVCAR-8
  GI50: > 100 µM (inactive)
OVCAR-5
  GI50: > 100 µM (inactive)
SNB-19
  GI50: > 100 µM (inactive)
HOP-92
  GI50: > 100 µM (inactive)

## COc1ccc2c(c1)CCN1C3=C(CCC3)C(=O)C[C@@H]21
A498
  GI50: 62.2 µM (inactive)
NCI-H226
  GI50: > 100 µM (inactive)
COLO 205
  GI50: > 100 µM (inactive)
SR
  GI50: 31.1 µM (inactive)
786-0
  GI50: > 100 µM (inactive)
SK-MEL-28
  GI50: > 100 µM (inactive)
OVCAR-3
  GI50: > 100 µM (inactive)
LOX IMVI
  GI50: > 100 µM (inactive)
SNB-78
  GI50: > 100 µM (inactive)
TK-10
  GI50: 44.7 µM (inactive)
M14
  GI50: > 100 µM (inactive)
RXF 393
  GI50: > 100 µM (inactive)
RPMI-8226
  GI50: > 100 µM (inactive)
SK-OV-3
  GI50: > 100 µM (inactive)
HCT-15
  GI50: > 100 µM
SF-295
  GI50: > 100 µM (inactive)
HL-60
  GI50: 23.2 µM (inactive)
HOP-18
  GI50: > 100 µM (inactive)
DMS-114
  GI50: 81.7 µM (inactive)
SK-MEL-5
  GI50: > 100 µM (inactive)
SN12C
  GI50: > 100 µM (inactive)
U-251
  GI50: > 100 µM (inactive)
SK-MEL-2
  GI50: > 100 µM (inactive)
HOP-62
  GI50: > 100 µM (inactive)
IGROV-1
  GI50: > 100 µM (inactive)
OVCAR-4
  GI50: > 100 µM (inactive)
CCRF-CEM
  GI50: > 100 µM (inactive)
NCI-H23
  GI50: > 100 µM (inactive)
UACC-257
  GI50: > 100 µM (inactive)
LXFL 529
  GI50: > 100 µM (inactive)
MOLT-4
  GI50: > 100 µM (inactive)
SW-620
  GI50: > 100 µM (inactive)
SNB-75
  GI50: 44.9 µM (inactive)
ACHN
  GI50: > 100 µM (inactive)
XF498
  GI50: 15.9 µM (inactive)
Malme-3M
  GI50: > 100 µM (inactive)
KM-20L2
  GI50: > 100 µM (inactive)
CAKI-1
  GI50: > 100 µM (inactive)
K562
  GI50: > 100 µM (inactive)
UO-31
  GI50: 43.6 µM (inactive)
KM12
  GI50: > 100 µM (inactive)
UACC-62
  GI50: > 100 µM (inactive)
HCC 2998
  GI50: > 100 µM (inactive)
A549
  GI50: > 100 µM (inactive)
SF-268
  GI50: > 100 µM (inactive)
NCI-H460
  GI50: > 100 µM (inactive)
EKVX
  GI50: > 100 µM (inactive)
DMS-273
  GI50: > 100 µM (inactive)
NCI-H522
  GI50: > 100 µM (inactive)
HT-29
  GI50: > 100 µM (inactive)
SF-539
  GI50: > 100 µM (inactive)
M19-MEL
  GI50: > 100 µM (inactive)
HCT-116
  GI50: > 100 µM (inactive)
OVCAR-8
  GI50: > 100 µM (inactive)
OVCAR-5
  GI50: 89.9 µM (inactive)
SNB-19
  GI50: > 100 µM (inactive)
HOP-92
  GI50: > 100 µM (inactive)
